In brackets after ≈: the same amount, converted by molar mass. Where two headings read alike, the source gives them in different places.
Tests used:
A. baumannii 17978 = experiment: Minimal inhibitory concentration assay in LB, A. baumannii; type: cell-based, Acinetobacter baumannii
[1] = tested on: Fc utilization by E. coli OKN3 + pITS23 (transported by FhuA); experiment: Siderophore nutrition test, Fc; type: cell-based, Escherichia coli
E. coli MG1655 = experiment: Minimal inhibitory concentration assay in LB; type: cell-based, Escherichia coli; conditions: two-fold dilutions up to […]
[2] = tested on: killing of E. coli MG1655 by colicin B (FepA, TonB-dependent); type: cell-based, Escherichia coli
[3] = tested on: FeEnt utilization by E. coli OKN3 + pITS23 (FepA); experiment: Siderophore nutrition test, FeEnt; type: cell-based, Escherichia coli; conditions: for growth halo phenotype in siderophore nutrition test, in words: 100 μM compound (FIG. 6A)
[4] = tested on: FeEnt utilization by A. baumannii; experiment: FeEnt siderophore nutrition test in A. baumannii; type: cell-based, Acinetobacter baumannii
[5] = tested on: TonB-dependent FeEnt uptake through FepA (E. coli OKN3/pITS23FepAS271C-FM); experiment: microbe, parasite or virus in culture; type: cell-based, Escherichia coli; conditions: for IC50: read-out: 50% Inhibition, Concentration (IC50)
TonB = type: cell-based, Escherichia coli
[6] = tested on: TonB-dependent FeEnt uptake through FepAS271C-FM; type: cell-based, Escherichia coli
[7] = Acinetobacter baumannii, 17978, read-out: MIC
[8] = E. coli OKN3 + pITS23, 50 μM Fc, 100 μM compound in DMSO, untreated 1.54 ± 0.105
[9] = Escherichia coli, MG1655, E. coli MG1655 in LB, dash = MIC >[…], read-out: MIC
[10] = percent killing of MG1655 by ColB in the presence of sub-toxic concentration of compound in DMSO, untreated 98.34 ± 2.38
[11] = E. coli OKN3 + pITS23, 50 μM FeEnt, 100 μM compound in DMSO, untreated 1.45 ± 0.123
[12] = A. baumannii, 50 μM FeEnt, 100 μM compound in DMSO, untreated 1.16 ± 0.065
[13] = halo increase >5% or no halo, killing prevented by >5%
[14] = Escherichia coli, […], cells pre-incubated 30 minutes at 37° C. with inhibitor
[15] = […], cells pre-incubated 30 minutes at 37° C. with inhibitor

`COc1cccc(O)c1O` [3-Methoxycatechol] was tested, and the MIC (A. baumannii 17978; [7]) was > 512 µM, the “Fc Halo” value [1, 8] was 1.60 ± 0.500 cm and the MIC (E. coli MG1655; [9]) was > 512 µM. For the same compound, the “% Colicin B killing” value [2, 10] was 98.2 ± 2.27%, the “FeEnt Halo” value [3, 11] was 1.50 ± 0.100 cm and the “FeEnt Halo” value [4, 12] was 1.12 ± 0.025 cm.

`[N-]=[N+]=[N-]` [Azide, azide] was tested, and the “100% Inhibition, Concentration (IC100)” value [5] was 18 mM and the IC50 [5] was 9 mM.

With `O=c1cc(-c2ccccc2)oc2cc(O)c(O)c(O)c12` [Baicalein] the MIC (A. baumannii 17978; [7]) was > 512 µM, the “inhibition in the secondary screens (FeEnt utilization, Fc utilization, ColB killing)” value (shortened to “inhibition in the secondary screens”) (TonB; [13]) was “inhibition in all three of the three secondary screens” and the “Fc Halo” value [1, 8] was 1.65 ± 0.045 cm. For the same compound, the MIC (E. coli MG1655; [9]) was > 512 µM, the “% Colicin B killing” value [2, 10] was 54.6 ± 13.2% and the “growth halo phenotype in siderophore nutrition test, in words” value [3] was “two unique halos”. The “FeEnt Halo” value [3, 11] was 1.65 ± 0.050 cm and the “FeEnt Halo” value [4, 12] was 1.23 ± 0.098 cm.

In the case of `N#CC(C#N)=NNc1cccc(Cl)c1` [CCCP, carbonyl cyanide m-chlorophenylhydrazone], the IC50 [5, 14] is reported as 0.005 mM, the “100% Inhibition, Concentration (IC100)” value [5, 15] is reported as 0.01 mM and the “fluorescence recovery (FeEnt uptake) in words” value ([6]; 96-well plate, 10 nM FeEnt, CCCP 20 uM, 50 min time course (FIG. 2B)) is reported as “fully prevented fluorescence recovery”. The “recovered fluorescence in words” value ([6]; 384-well plate format, increasing concentrations of CCCP (FIG. 3)) was “dose-responsive decrease in recovered fluorescence”.

For `CC(=O)[O-].CC(=O)[O-].[Cd+2]` [Cadmium acetate], the MIC (A. baumannii 17978; read-out: MIC) was 256 µM, the “inhibition in the secondary screens” value (TonB) was “inhibitory in two of the three secondary assays” and the “Fc Halo” value [1] was 2.08 ± 0.42 cm. The “% Colicin B killing” value [2] was 98.4 ± 0.43%, the “FeEnt Halo” value [3] was 2.22 ± 0.076 cm and the “FeEnt Halo” value [4] was 0 cm.

In the case of `C[C@@](Cc1ccc(O)c(O)c1)(NN)C(=O)O` [Carbidopa], the MIC (A. baumannii 17978; [7]) is reported as > 512 µM, the “Fc Halo” value [1, 8] is reported as 1.65 ± 0.055 cm and the MIC (E. coli MG1655; [9]) is reported as > 512 µM. The “% Colicin B killing” value [2, 10] was 96.0 ± 2.0%, the “FeEnt Halo” value [3, 11] was 1.58 ± 0.089 cm and the “FeEnt Halo” value [4, 12] was 1.10 ± 0.015 cm.

`N.N.O=C([O-])C1(C(=O)[O-])CCC1.[Pt+2]` [Carboplatin] was tested, and the MIC (A. baumannii 17978; A. baumannii 17978 in LB, two-fold dilutions up to […], dash = MIC >[…]) was “— (If MIC >512 μM, value not listed)”, the “Fc Halo” value [1, 8] was 1.62 ± 0.015 cm and the MIC (E. coli MG1655; E. coli MG1655 in LB, dash = MIC >[…]) was “— (If MIC >512 μM, value not listed)”. The “% Colicin B killing” value [2, 10] was 100 ± 0.00%, the “FeEnt Halo” value [3, 11] was 1.54 ± 0.031 cm and the “FeEnt Halo” value [4, 12] was 1.10 ± 0.050 cm.

`O=[N+]([O-])c1ccc(O)c([N+](=O)[O-])c1` [DNP, 2,4-dinitrophenol] was tested, and the IC50 [5, 14] was 0.75 mM, the “effect on FeEnt binding and transport in words” value ([5]; FeEnt plus energy poison added to cells (FIG. 1A)) was “did not affect binding but prevented transport” and the “100% Inhibition, Concentration (IC100)” value [5, 15] was 1.5 mM.

With `Cc1cc(N)c2ccccc2[n+]1CCCCCCCCCC[n+]1c(C)cc(N)c2ccccc21` [Dequalinium Chloride] the MIC (A. baumannii 17978; [7]) was > 512 µM, the “Fc Halo” value [1, 8] was 1.55 ± 0.131 cm and the MIC (E. coli MG1655; [9]) was > 512 µM. The “% Colicin B killing” value [2, 10] was 98.7 ± 1.10%, the “FeEnt Halo” value [3, 11] was 1.43 ± 0.110 cm and the “FeEnt Halo” value [4, 12] was 1.14 ± 0.017 cm.

In the case of `O=c1c2ccccc2[se]n1-c1ccccc1` [Ebselen], the MIC (A. baumannii 17978; [7]) is reported as 32 µM (≈ 8.77 µg/mL), the “Fc Halo” value [1, 8] is reported as 0 cm and the MIC (E. coli MG1655; E. coli MG1655 in LB, dash = MIC >[…], read-out: MIC) is reported as 128 µM (≈ 35.1 µg/mL). For the same compound, the “% Colicin B killing” value [2, 10] was 93.4 ± 2.25%, the “FeEnt Halo” value [3, 11] was 0 cm and the “FeEnt Halo” value [4, 12] was 0 cm.

With `O=c1oc2c(O)c(O)cc3c(=O)oc4c(O)c(O)cc1c4c23` [Ellagic acid] the MIC (A. baumannii 17978; [7]) was 256 µM (≈ 77.4 µg/mL), the “inhibition in the secondary screens” value (TonB; [13]) was “inhibitory in two of the three secondary assays” and the “Fc Halo” value [1, 8] was 1.36 ± 0.197 cm. For the same compound, the MIC (E. coli MG1655; [9]) was > 512 µM, the “% Colicin B killing” value [2, 10] was 82.9 ± 3.75% and the “growth halo phenotype in siderophore nutrition test, in words” value [3] was “two unique halos”. For the same compound, the “FeEnt Halo” value [3, 11] was 1.61 ± 0.075 cm and the “FeEnt Halo” value [4, 12] was 1.08 ± 0.041 cm.

For `O=C1C(Cl)=C(Cl)C(=O)C(Cl)=C1Cl` [P-Chloranil], the MIC (A. baumannii 17978; A. baumannii 17978 in LB, two-fold dilutions up to […], […]) was “— (If MIC >512 μM, value not listed)”, the “differential impact on transport of FeEnt, Fc and ColB, in words” value (TonB) was “inhibited ColB but not FeEnt or Fc transport” and the “Fc Halo” value [1, 8] was 1.57 ± 0.059 cm. For the same compound, the MIC (E. coli MG1655; E. coli MG1655 in LB, […]) was “— (If MIC >512 μM, value not listed)”, the “% Colicin B killing” value [2] was 93.0 ± 3.36% and the “FeEnt Halo” value [3, 11] was 1.51 ± 0.148 cm. The “FeEnt Halo” value [4, 12] was 1.14 ± 0.015 cm.

Thimerosal was tested, and the MIC (A. baumannii 17978; read-out: MIC) was 1 µM, the “inhibition in the secondary screens” value (TonB) was “inhibition in all three of the three secondary screens” and the “Fc Halo” value [1] was 0 cm. The “% Colicin B killing” value [2] was 98.6 ± 0.98%, the “FeEnt Halo” value [3] was 0 cm and the “FeEnt Halo” value [4] was 0 cm.

Zinc pyrithione was tested, and the MIC (A. baumannii 17978; read-out: MIC) was 16 µM, the “inhibition in the secondary screens” value (TonB) was “inhibition in all three of the three secondary screens” and the “Fc Halo” value [1] was 0 cm. The “% Colicin B killing” value [2] was 20.4 ± 5.90%, the “FeEnt Halo” value [3] was 0 cm and the “FeEnt Halo” value [4] was 0 cm.

arsenate was tested, and the “100% Inhibition, Concentration (IC100)” value [5] was 180 mM and the IC50 [5] was 90 mM.

From patent publication US10604782B2, “High-throughput fluorescent screening assay for inhibitors of gram-negative bacterial iron uptake” (Kansas State University Research Foundation, priority 2015, dated 2020)
